From PubChem BioAssay (NCI)
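Cells were grown in 96-well plates and exposed to each compound for 48 hours at five concentrations; endpoints were interpolated linearly between bracketing concentrations, or set to the highest concentration if not reached. TGI: concentration producing complete growth inhibition.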

Experiments:
Assay in all cases: NCI-60 cell line screen, 48 h
CAKI-1 renal = test system: CAKI-1 renal
HT29 colon = test system: HT29 colon
KM12 colon = test system: KM12 colon
NCI-H23 lung = test system: NCI-H23 lung
OVCAR-3 ovarian = test system: OVCAR-3 ovarian
OVCAR-4 ovarian = test system: OVCAR-4 ovarian
OVCAR-8 ovarian = test system: OVCAR-8 ovarian
SF-268 CNS = test system: SF-268 CNS
SK-MEL-5 melanoma = test system: SK-MEL-5 melanoma
UACC-257 melanoma = test system: UACC-257 melanoma

CCOP(=O)(OCC)C(Cc1ccc(Cl)cc1)NS(=O)(=O)c1ccc(C)cc1 (stereo not given)
TGI (CAKI-1 renal): > 100 µM
TGI (HT29 colon): > 100 µM
TGI (KM12 colon): > 100 µM
TGI (NCI-H23 lung): > 100 µM
TGI (OVCAR-3 ovarian): > 100 µM
TGI (OVCAR-4 ovarian): > 100 µM
TGI (OVCAR-8 ovarian): > 100 µM
TGI (SF-268 CNS): > 100 µM
TGI (SK-MEL-5 melanoma): > 100 µM
TGI (UACC-257 melanoma): > 100 µM

CC1CC(N2CCOCC2)=Nc2ccccc2N1Cc1ccccc1 (stereo not given)
TGI (CAKI-1 renal): > 100 µM
TGI (HT29 colon): > 100 µM
TGI (KM12 colon): > 100 µM
TGI (NCI-H23 lung): > 100 µM
TGI (OVCAR-3 ovarian): > 100 µM
TGI (OVCAR-4 ovarian): > 100 µM
TGI (OVCAR-8 ovarian): > 100 µM
TGI (SF-268 CNS): > 100 µM
TGI (SK-MEL-5 melanoma): > 100 µM
TGI (UACC-257 melanoma): > 100 µM

Cc1ccc(S(=O)(=O)NC(=O)Nc2cc(Cl)c(S(N)(=O)=O)cc2S(N)(=O)=O)cc1
TGI (CAKI-1 renal): > 100 µM
TGI (HT29 colon): > 100 µM
TGI (KM12 colon): > 100 µM
TGI (NCI-H23 lung): > 100 µM
TGI (OVCAR-3 ovarian): > 100 µM
TGI (OVCAR-4 ovarian): > 100 µM
TGI (OVCAR-8 ovarian): > 100 µM
TGI (SF-268 CNS): > 100 µM
TGI (SK-MEL-5 melanoma): > 100 µM
TGI (UACC-257 melanoma): > 100 µM

C/C(=N\NC(=S)Nc1ccc([N+](=O)[O-])cc1)c1nc2ncccc2[nH]1
TGI (CAKI-1 renal): > 100 µM
TGI (HT29 colon): 2.04 µM
TGI (KM12 colon): > 100 µM
TGI (NCI-H23 lung): 4.14 µM
TGI (OVCAR-3 ovarian): 17.7 µM
TGI (OVCAR-4 ovarian): 4.21 µM
TGI (OVCAR-8 ovarian): 1.71 µM
TGI (SF-268 CNS): > 100 µM
TGI (SK-MEL-5 melanoma): 5.27 µM
TGI (UACC-257 melanoma): 2.96 µM

FC(F)(F)c1cccnc1Sc1nc2ccccc2s1
TGI (CAKI-1 renal): > 100 µM
TGI (HT29 colon): > 100 µM
TGI (KM12 colon): > 100 µM
TGI (NCI-H23 lung): > 100 µM
TGI (OVCAR-3 ovarian): > 100 µM
TGI (OVCAR-4 ovarian): > 100 µM
TGI (OVCAR-8 ovarian): > 100 µM
TGI (SF-268 CNS): > 100 µM
TGI (SK-MEL-5 melanoma): > 100 µM
TGI (UACC-257 melanoma): > 100 µM

O=[N+]([O-])C(=C/c1cccc2ccccc12)/C(=C\c1cccc2ccccc12)[N+](=O)[O-]
TGI (CAKI-1 renal): 4.68 µM
TGI (HT29 colon): 5.13 µM
TGI (KM12 colon): 16 µM
TGI (NCI-H23 lung): 4.36 µM
TGI (OVCAR-3 ovarian): 15.5 µM
TGI (OVCAR-4 ovarian): 7.06 µM
TGI (OVCAR-8 ovarian): 7.29 µM
TGI (SF-268 CNS): 7.67 µM
TGI (SK-MEL-5 melanoma): 6.45 µM
TGI (UACC-257 melanoma): 5.44 µM

Cc1cccc(CNc2ncnc3[nH]ncc23)c1
TGI (CAKI-1 renal): > 100 µM
TGI (HT29 colon): > 100 µM
TGI (KM12 colon): > 100 µM
TGI (NCI-H23 lung): > 100 µM
TGI (OVCAR-3 ovarian): > 100 µM
TGI (OVCAR-4 ovarian): > 100 µM
TGI (OVCAR-8 ovarian): > 100 µM
TGI (SF-268 CNS): > 100 µM
TGI (SK-MEL-5 melanoma): > 100 µM
TGI (UACC-257 melanoma): > 100 µM

CCCCN(C)C(=O)C1=C(C)NC(C)=C(C(=O)N(C)CCCC)C1
TGI (CAKI-1 renal): > 100 µM
TGI (HT29 colon): > 100 µM
TGI (KM12 colon): > 100 µM
TGI (NCI-H23 lung): > 100 µM
TGI (OVCAR-3 ovarian): > 100 µM
TGI (OVCAR-4 ovarian): > 100 µM
TGI (OVCAR-8 ovarian): > 100 µM
TGI (SF-268 CNS): > 100 µM
TGI (SK-MEL-5 melanoma): > 100 µM
TGI (UACC-257 melanoma): > 100 µM

C=CCNC(=O)CN(CC(=O)O)C1CCCCC1N(CC(=O)O)CC(=O)O (stereo not given)
TGI (CAKI-1 renal): > 100 µM
TGI (HT29 colon): > 100 µM
TGI (KM12 colon): > 100 µM
TGI (NCI-H23 lung): > 100 µM
TGI (OVCAR-3 ovarian): > 100 µM
TGI (OVCAR-4 ovarian): > 100 µM
TGI (OVCAR-8 ovarian): > 100 µM
TGI (SF-268 CNS): > 100 µM
TGI (SK-MEL-5 melanoma): > 100 µM
TGI (UACC-257 melanoma): > 100 µM

COc1ccc(NC(=O)C(=O)Cc2nc3ccc(C(=O)c4ccccc4)cc3[nH]c2=O)c([N+](=O)[O-])c1
TGI (CAKI-1 renal): > 100 µM
TGI (HT29 colon): 35.9 µM
TGI (KM12 colon): 64 µM
TGI (NCI-H23 lung): 65.4 µM
TGI (OVCAR-3 ovarian): > 100 µM
TGI (OVCAR-4 ovarian): > 100 µM
TGI (OVCAR-8 ovarian): 49 µM
TGI (SF-268 CNS): > 100 µM
TGI (SK-MEL-5 melanoma): 68.8 µM
TGI (UACC-257 melanoma): > 100 µM

C=C1C2CCC3(CCC4C5(C)CCCC4(C=[N+](CCO)C5)C3C2)C1O (stereo not given)
TGI (CAKI-1 renal): > 100 µM
TGI (HT29 colon): > 100 µM
TGI (KM12 colon): > 100 µM
TGI (NCI-H23 lung): > 100 µM
TGI (OVCAR-3 ovarian): > 100 µM
TGI (OVCAR-4 ovarian): > 100 µM
TGI (OVCAR-8 ovarian): > 100 µM
TGI (SF-268 CNS): > 100 µM
TGI (SK-MEL-5 melanoma): > 100 µM
TGI (UACC-257 melanoma): > 100 µM

O=c1cc(CNC2CC3CCC2C3)[nH]c(=O)[nH]1 (stereo not given)
TGI (CAKI-1 renal): > 100 µM
TGI (HT29 colon): > 100 µM
TGI (KM12 colon): > 100 µM
TGI (NCI-H23 lung): > 100 µM
TGI (OVCAR-3 ovarian): > 100 µM
TGI (OVCAR-4 ovarian): > 100 µM
TGI (OVCAR-8 ovarian): > 100 µM
TGI (SF-268 CNS): > 100 µM
TGI (SK-MEL-5 melanoma): > 100 µM
TGI (UACC-257 melanoma): > 100 µM

CC(=O)Nc1ccc(S(=O)(=O)NN(C)S(=O)(=O)c2ccc(C)cc2)cc1
TGI (CAKI-1 renal): > 100 µM
TGI (HT29 colon): > 100 µM
TGI (KM12 colon): > 100 µM
TGI (NCI-H23 lung): > 100 µM
TGI (OVCAR-3 ovarian): > 100 µM
TGI (OVCAR-4 ovarian): > 100 µM
TGI (OVCAR-8 ovarian): > 100 µM
TGI (SF-268 CNS): > 100 µM
TGI (SK-MEL-5 melanoma): > 100 µM
TGI (UACC-257 melanoma): > 100 µM

COC(=O)[C@@]1(NC(=O)C(CC(=O)OC(C)(C)C)NC(=O)OC(C)(C)C)C[C@H]1C (stereo not given in full)
TGI (CAKI-1 renal): > 100 µM
TGI (HT29 colon): > 100 µM
TGI (KM12 colon): > 100 µM
TGI (NCI-H23 lung): > 100 µM
TGI (OVCAR-3 ovarian): > 100 µM
TGI (OVCAR-4 ovarian): > 100 µM
TGI (OVCAR-8 ovarian): > 100 µM
TGI (SF-268 CNS): > 100 µM
TGI (SK-MEL-5 melanoma): > 100 µM
TGI (UACC-257 melanoma): > 100 µM

O/N=C1/CCCc2nonc21
TGI (CAKI-1 renal): > 100 µM
TGI (HT29 colon): > 100 µM
TGI (KM12 colon): > 100 µM
TGI (NCI-H23 lung): > 100 µM
TGI (OVCAR-3 ovarian): > 100 µM
TGI (OVCAR-4 ovarian): > 100 µM
TGI (OVCAR-8 ovarian): > 100 µM
TGI (SF-268 CNS): > 100 µM
TGI (SK-MEL-5 melanoma): > 100 µM
TGI (UACC-257 melanoma): > 100 µM

Cc1ccc(S(=O)(=O)N2CC(CCN)c3ccccc32)cc1 (stereo not given)
TGI (CAKI-1 renal): 23.8 µM
TGI (HT29 colon): 8.14 µM
TGI (KM12 colon): > 100 µM
TGI (NCI-H23 lung): > 52.6 µM
TGI (OVCAR-3 ovarian): 26.2 µM
TGI (OVCAR-4 ovarian): > 100 µM
TGI (OVCAR-8 ovarian): 27 µM
TGI (SF-268 CNS): 23.8 µM
TGI (SK-MEL-5 melanoma): 17.7 µM
TGI (UACC-257 melanoma): 33.9 µM

COc1cc(C(=O)O)c(-c2cc3c(cc2C=O)OCO3)c(OC)c1OC
TGI (CAKI-1 renal): > 10 µM
TGI (HT29 colon): > 10 µM
TGI (KM12 colon): > 10 µM
TGI (NCI-H23 lung): > 10 µM
TGI (OVCAR-3 ovarian): > 10 µM
TGI (OVCAR-4 ovarian): > 10 µM
TGI (OVCAR-8 ovarian): > 10 µM
TGI (SF-268 CNS): > 10 µM
TGI (SK-MEL-5 melanoma): > 10 µM
TGI (UACC-257 melanoma): > 10 µM

O=C1C=C(C2=C(C3=CC(=O)c4ccccc4C3=O)C(=O)c3ccccc3C2=O)C(=O)c2ccccc21
TGI (CAKI-1 renal): 11.7 µM
TGI (HT29 colon): 12.5 µM
TGI (KM12 colon): 30.8 µM
TGI (NCI-H23 lung): 19.7 µM
TGI (OVCAR-3 ovarian): 12.9 µM
TGI (OVCAR-4 ovarian): 17 µM
TGI (OVCAR-8 ovarian): 19.1 µM
TGI (SF-268 CNS): 33.8 µM
TGI (SK-MEL-5 melanoma): 23.9 µM
TGI (UACC-257 melanoma): 25.4 µM

O=S(=O)(O)c1ccc2cc(N=Nc3c(O)ccc4ccccc34)ccc2c1
TGI (CAKI-1 renal): > 100 µM
TGI (HT29 colon): > 100 µM
TGI (KM12 colon): > 100 µM
TGI (NCI-H23 lung): > 100 µM
TGI (OVCAR-3 ovarian): > 100 µM
TGI (OVCAR-4 ovarian): > 100 µM
TGI (OVCAR-8 ovarian): > 100 µM
TGI (SF-268 CNS): > 100 µM
TGI (SK-MEL-5 melanoma): > 100 µM
TGI (UACC-257 melanoma): > 100 µM

O=c1[nH]c2nc[nH]c2c(=O)n1C1CCCCC1
TGI (CAKI-1 renal): > 100 µM
TGI (HT29 colon): > 100 µM
TGI (KM12 colon): > 100 µM
TGI (NCI-H23 lung): > 100 µM
TGI (OVCAR-3 ovarian): > 100 µM
TGI (OVCAR-4 ovarian): > 100 µM
TGI (OVCAR-8 ovarian): > 100 µM
TGI (SF-268 CNS): > 100 µM
TGI (SK-MEL-5 melanoma): > 100 µM
TGI (UACC-257 melanoma): > 100 µM

O=C(O)CC12CC3CC(CC(O)(C3)C1)C2
TGI (CAKI-1 renal): > 100 µM
TGI (HT29 colon): > 100 µM
TGI (KM12 colon): > 100 µM
TGI (NCI-H23 lung): > 100 µM
TGI (OVCAR-3 ovarian): > 100 µM
TGI (OVCAR-4 ovarian): > 100 µM
TGI (OVCAR-8 ovarian): > 100 µM
TGI (SF-268 CNS): 82.7 µM
TGI (SK-MEL-5 melanoma): > 100 µM
TGI (UACC-257 melanoma): > 100 µM
